Data set [1] is described as follows: AUC in Sprague-Dawley rat plasma at 5 mg/kg, po after 24 hrs. The data set is classed as ADME, organism-based. Set-up: time < 24 hr, dose 5 mg/kg, route oral.
Data set [2] in a line: Half life in Sprague-Dawley rat plasma at 5 mg/kg, iv after 24 hrs. The data set is classed as ADME, organism-based. Set-up: dose 5 mg/kg, route intravenous.
A short description of data set [3]: Clearance in Sprague-Dawley rat plasma after 24 hrs. The data set is classed as ADME, organism-based.
Data set [4] is described as follows: Volume of distribution at steady state in Sprague-Dawley rat plasma after 24 hrs. The data set is classed as ADME, organism-based. As to conditions: read-out: Vdss.
Data set [5] is described as follows: Bioavailability in Sprague-Dawley rat plasma at 5 mg/kg, po after 24 hrs. The data set is classed as ADME, organism-based.
In data set [6] the test system is Mus musculus. Put plainly: Antihyperglycemic effect in ob/ob B6.V-Lepob/J mouse assessed as reduction in blood glucose level at 20 mg/kg once daily after 14 days relative to control. The data set is classed as functional. Set-up: scale not given: the % may be the effect or the level left.
Data set [7] is filed under the species Mus musculus. Put plainly: Antihyperglycemic effect in ob/ob B6.V-Lepob/J mouse assessed as reduction in plasma glucose level after 14 days relative to control. The data set is classed as functional, organism-based.
The target in data set [8] is T1, Peroxisome proliferator-activated receptor alpha (Homo sapiens, UniProt Q07869).
T1 sequence (Q07869 whole entry): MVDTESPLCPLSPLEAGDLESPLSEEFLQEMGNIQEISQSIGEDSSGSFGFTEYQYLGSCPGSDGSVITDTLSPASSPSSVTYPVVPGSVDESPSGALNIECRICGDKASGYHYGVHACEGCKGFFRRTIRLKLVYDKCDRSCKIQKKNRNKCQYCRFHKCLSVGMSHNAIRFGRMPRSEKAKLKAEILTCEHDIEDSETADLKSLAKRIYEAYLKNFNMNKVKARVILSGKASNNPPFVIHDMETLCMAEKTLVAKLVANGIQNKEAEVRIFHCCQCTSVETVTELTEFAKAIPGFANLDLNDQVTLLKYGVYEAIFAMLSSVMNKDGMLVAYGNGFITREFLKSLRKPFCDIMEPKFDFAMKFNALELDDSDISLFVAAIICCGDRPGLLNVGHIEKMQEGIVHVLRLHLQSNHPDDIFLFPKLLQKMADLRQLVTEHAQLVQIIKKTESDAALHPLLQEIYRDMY

For data set [9], the system named is Rattus norvegicus. Put plainly: Reduction of plasma glucose level in Zucker diabetic fa/fa rat at 10 mg/kg, po. The data set is classed as functional. Set-up: scale not given: the % may be the effect or the level left.
Data set [10] relates to Rattus norvegicus. The experiment in a line: Decrease in fasting serum triglyceride level in Zucker diabetic fa/fa rat at 10 mg/kg, po. The data set is classed as functional. Set-up: scale not given: the % may be the effect or the level left.
The subject of data set [11] is Rattus norvegicus. The experiment in a line: Increase in high density lipoprotein level in Zucker diabetic fa/fa rat at 10 mg/kg, po. The data set is classed as functional.
Data set [12] can be described thus: Half life in Sprague-Dawley rat plasma at 1 mg/kg, iv after 24 hrs. Set-up: dose 1 mg/kg, route intravenous. The data set is classed as ADME, organism-based.

Calls of active or inactive are those of the source. The rule behind the calls is not given here.

Regarding `Cc1oc(-c2ccccc2)nc1CCCc1ccc(C[C@@H](C(=O)O)n2cccc2)cc1`, in data set [1], the exposure (AUC) (usually concentration integrated over time) at 24 h was determined as 8650 ng·h/mL. Moreover, the half-life – broadly, how long it takes for the measured level to halve – in data set [2] is 504 min. Besides, in [3], the clearance (commonly the volume of plasma or blood freed of the substance per unit of time) stood at 5.3 mL/min/kg. The Vd in data set [4] worked out at 1.06 L/kg. For the same molecule, in [5], the bioavailability (as a rule, dose-corrected exposure relative to a reference, in per cent) came out at 50%. The Activity in the data set with Mus musculus [6] turned out to be 70%. Also, the outcome in the data set filed under Mus musculus [7] was Active.

In the case of `CC(=O)N(Cc1ccc(C[C@@H](C(=O)O)n2cccc2)cc1)Cc1nc(-c2ccccc2)oc1C`, the EC50 (as a rule, the concentration needed to bring the measured effect to its halfway point) in data set [8] was above 30 µM.

As for `Cc1oc(-c2ccccc2)nc1CC#Cc1ccc(CC(C(=O)O)c2cccnc2)cc1` (racemic), a half-maximal effect in [8] (EC50) was put at 16 µM.

With `Cc1oc(-c2ccccc2)nc1CCOc1ccc(C[C@@H](C(=O)O)n2cccc2)cc1`, the results for the Activity in the data set with Rattus norvegicus [9], with Rattus norvegicus [10] and with Rattus norvegicus [11] were 40%, 24% and 31%, respectively.

The molecule `Cc1oc(-c2ccccc2)nc1CN(C)Cc1ccc(C[C@@H](C(=O)O)n2cccc2)cc1` registered an EC50 in data set [8] of 12 µM.

Turning to `CN(C/C=C/c1ccc(C[C@@H](C(=O)O)n2cccc2)cc1)c1ccccn1`, it took 29 µM to reach a half-maximal effect in [8] (EC50).

On to `Cc1oc(-c2ccccc2)nc1CCNc1ccc(C[C@@H](C(=O)O)n2cccc2)cc1`, for which the result with Mus musculus [6] was inactive.

In data set [1], `Cc1oc(-c2ccccc2)nc1C/C=C/c1ccc(C[C@@H](C(=O)O)n2cccc2)cc1` had an AUC at 24 h of 55400 ng·h/mL. The molecule further showed a half-life in data set [12] of 336 min. In [3], the clearance stood at 0.9 mL/min/kg. In data set [4], the Vd was found to be 0.408 L/kg. Moreover, the bioavailability in data set [5] is 62%. In addition, the Activity in the data set on Mus musculus [6] turned out to be 71%. Further, in the data set listed under Mus musculus [7], the outcome was Active.

`Cc1oc(-c2ccccc2)nc1CC#Cc1ccc(CC(C(=O)O)c2cccc(-c3ccccc3)c2)cc1` (racemic) came in with an EC50 in [8] of 2.8 µM.

The molecule `Cc1oc(-c2ccccc2)nc1CNCc1ccc(C[C@@H](C(=O)O)n2cccc2)cc1` registered an EC50 in data set [8] above 30 µM.

In turn, `CN(CC#Cc1ccc(C[C@@H](C(=O)O)n2cccc2)cc1)c1ccccc1` showed an EC50 in data set [8] above 100 µM.

`Cc1oc(-c2ccccc2)nc1CC#Cc1ccc(CC(C(=O)O)c2ccc(-c3ccccc3)cc2)cc1` (racemic): the response in data set [8] was half-maximal at 4 µM (EC50).

With `CN(CC#Cc1ccc(CC(C(=O)O)n2cccc2)cc1)c1ccccn1` (racemic), the EC50 in data set [8] is above 100 µM.

In data set [8], `CN(C/C=C/c1ccc(C[C@@H](C(=O)O)n2cccc2)cc1)c1ccccc1` came in with an EC50 above 30 µM.

For the origin of these results see ChEMBL document CHEMBL1157199, “Effects of modifications of the linker in a series of phenylpropanoic acid derivatives: Synthesis, evaluation as PPARalpha/gamma dual agonists, and X-ray crystallographic studies” (Bioorg Med Chem, 2008).
